In patent publication US20220226219A1, “ANTIMICROBIAL COMPOSITIONS” (Conopco, Inc., d/b/a UNILEVER, priority 2019, published 2022):

What follows are compounds tested on Gram negative fermenting bacteria; Enterobacter gergoviae and Klebsiella species (assay: Liquid broth MIC assay of individual chemicals). Conditions: tryptic soy broth, 30° C., 24 hours, OD600, MIC = concentration at which <25% growth vs positive growth control.
Assay type: cell-based
Description: Liquid broth assays (MIC and checkerboard) were conducted to identify the minimum concentration(s) of individual and tertiary antimicrobial chemicals. A modified methodology to ISO 20776-1:2006 was utilized for the screening as follows. Stock solutions of antimicrobial chemicals and tryptic soy broth were inoculated with 1-5×10^6 microorganism mixture of Gram negative fermenting bacteria; Enterobacter gergoviae and Klebsiella species.
Samples were incubated at 30° C. for 24 hours, after which optical densities at OD600 nm were measured.

| SMILES | MIC [wt %] |
| --- | --- |
| CC(=O)OC/C=C(\C)CCC=C(C)C [Geranyl Acetate] | 2 |
| CC(C)=CCC/C(C)=C/CO [Geraniol Natural, Geraniol] | 2 |
| O=C([O-])c1ccccc1.[Na+] [Sodium benzoate] | 0.5 |
| C=CCc1ccc(O)c(OC)c1 [Eugenol] | 0.063 |
| CC1=CC[C@@H](C(C)(C)O)CC1 [Terponeol] | 0.125 |
| CCCCCCCC1CCC(=O)O1 (stereo not shown) [Gamma Undecalactone] | 2 |
| CCCCCCOC(C)=O [Hexyl acetate] | 2 |
| CC(=O)OCc1ccccc1 [Benzyl Acetate] | 2 |
| CC(C)=CCCC(C)CCO (stereo not shown) [Citroneol] | 2 |
| CC1CCC(C(C)C)C(O)C1 (stereo not shown) [Menthol] | 2 |
| CC12CCC(CC1)C(C)(C)O2 [Eucalyptol] | 2 |
| C=C(CC(=O)O)C(=O)O [ltaconic Acid] | 0.5 |
| C=C(C)[C@H]1CC=C(C)CC1 [Limonene] | 2 |
| Cc1cc(CC(C)CC(C)(C)C)n(O)c(=O)c1.NCCO (stereo not shown) [Octopirox, piroctone olamine, reference compound] | 0.063 |
| CCCC(=O)OCC [Ethyl Butyrate] | 2 |
| OCCc1ccccc1 [Phenethyl Alcohol] | 0.5 |
